Laboratory results from patent publication US20260232657A1, “MELANOCORTIN SUBTYPE-2 RECEPTOR (MC2R) ANTAGONIST FOR THE TREATMENT OF ACTH-DEPENDENT CUSHING'S SYNDROME” (CRINETICS PHARMACEUTICALS, INC., priority 2023, published 2026).

How the values were obtained:
[1] = Repeat dose general toxicity study in dog; assay type: in vivo
Protocol: (§1) The overall nonclinical safety of Compound 1 was assessed in 28-day and 3-month repeat dose general toxicity studies in rat and dog and in a battery of in vitro and in vivo genotoxicity and safety pharmacology studies.

[2] = In vitro metabolism in plasma, liver microsomes and liver S9; assay type: in vitro ADME, various species (including human); settings: liver microsomes, liver S9
Source text: (§2) In vitro studies evaluated the metabolism of Compound 1 in plasma, liver microsomes, and/or 9000 g supernatant fraction of the liver homogenate (liver S9) from various species (including human).

aldosterone = test: ACTH- and Angiotensin-II-stimulated aldosterone in vivo
Protocol: (§3) Disease models mimicking states of ACTH excess and hypercortisolism included rats administered exogenous ACTH (1-24) via subcutaneous osmotic pump over 7 days and mice implanted with ACTH-secreting corticotroph AtT-20 tumor cells; animals received daily oral doses of placebo or Compound 1. […] However, six days after discontinuation of the highest dose of Compound 1 (75 mg/kg for 15 days), Ang-II stimulated aldosterone was suppressed, but sodium and potassium levels were normal.

MC2R [3] = target: T1, MC2R (Homo sapiens, UniProt Q01718); test: MC2R antagonist affinity / ACTH binding to the receptor
corticosterone [4] = test: ACTH excess model: mice implanted with ACTH-secreting corticotroph AtT-20 tumor cells; assay type: in vivo, mouse; settings: mice with AtT-20 tumor cells, daily oral doses
Protocol: as §3

[5] = Previous study in healthy volunteers; assay type: in vivo, human
Source text: It has therefore been identified as an AESI in this study and may lead to dose limiting toxicity.

MC2R [6] = target: T1, MC2R; test: ACTH-mediated G-protein activation and cAMP production; assay type: biochemical
[7] = In vitro and in vivo genotoxicity studies; settings: in vitro and in vivo battery
Protocol: as §1

[8] = Safety pharmacology studies
Protocol: as §1

[9] = test system: other human melanocortin receptor subtypes; test: Selectivity over other melanocortin receptor subtypes; assay type: binding; settings: MC2R vs other subtypes
5-HT1B receptor = 5-HT1B receptor (Homo sapiens, UniProt P28222); test: Screen for potential off-target activities; assay type: biochemical
[10] = Repeat dose general toxicity study in rat; assay type: in vivo
Protocol: as §1

[11] = Effect of food on absorption; assay type: in vivo, human; settings: oral tablet
Protocol: Participants will receive Compound 1 at the appropriate dose for their cohort as a single daily dose for 10 days at approximately 8 am. Tablets will be taken orally with 240 mL of water.

[12] = test system: corticosterone secretion after ACTH (1-24); test: ACTH (1-24) challenge, corticosterone secretion in rats; assay type: in vivo, rat
CYP2C8 = target: T2, CYP2C8 (Homo sapiens, UniProt P10632); test: CYP involvement in metabolic clearance; assay type: in vitro ADME
T2 sequence (P10632 1-490): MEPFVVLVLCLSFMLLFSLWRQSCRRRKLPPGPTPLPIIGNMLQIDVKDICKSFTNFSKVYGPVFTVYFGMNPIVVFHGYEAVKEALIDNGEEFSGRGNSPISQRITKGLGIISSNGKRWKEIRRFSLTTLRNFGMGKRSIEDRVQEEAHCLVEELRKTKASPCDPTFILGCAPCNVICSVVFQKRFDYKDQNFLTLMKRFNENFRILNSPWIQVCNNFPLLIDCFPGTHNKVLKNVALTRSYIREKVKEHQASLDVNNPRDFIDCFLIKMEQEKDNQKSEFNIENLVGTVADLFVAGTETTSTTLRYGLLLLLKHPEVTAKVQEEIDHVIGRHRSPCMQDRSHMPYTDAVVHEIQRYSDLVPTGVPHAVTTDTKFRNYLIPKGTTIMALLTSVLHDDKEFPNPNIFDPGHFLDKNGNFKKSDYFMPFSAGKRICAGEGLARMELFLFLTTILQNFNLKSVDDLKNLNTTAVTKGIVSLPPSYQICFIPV
Source text: as §2

CYP2D6 = CYP2D6 (Homo sapiens, UniProt P10635); test: CYP involvement in metabolic clearance; assay type: in vitro ADME
Source text: as §2

CYP3A4 = CYP3A4 (Homo sapiens, UniProt P08684); test: CYP involvement in metabolic clearance; assay type: in vitro ADME
Source text: as §2

corticosterone [13] = test: ACTH excess model: rats given exogenous ACTH (1-24) via subcutaneous osmotic pump over 7 days; assay type: in vivo, rat; settings: ACTH (1-24) osmotic pump, daily oral doses
Protocol: as §3

[14] = six days after discontinuation of 75 mg/kg for 15 days

5-HT1B receptor, sequence (P28222 whole entry): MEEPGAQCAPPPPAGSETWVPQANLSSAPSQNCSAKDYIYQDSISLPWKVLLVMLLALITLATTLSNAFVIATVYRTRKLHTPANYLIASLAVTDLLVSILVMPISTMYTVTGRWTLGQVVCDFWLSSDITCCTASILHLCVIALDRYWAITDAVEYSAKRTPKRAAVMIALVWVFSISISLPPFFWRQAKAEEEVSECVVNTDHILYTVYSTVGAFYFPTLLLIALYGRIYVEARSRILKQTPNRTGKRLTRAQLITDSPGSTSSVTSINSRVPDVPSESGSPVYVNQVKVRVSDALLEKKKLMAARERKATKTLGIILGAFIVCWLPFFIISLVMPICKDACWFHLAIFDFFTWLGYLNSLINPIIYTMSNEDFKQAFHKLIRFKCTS
T1 sequence (Q01718 whole entry): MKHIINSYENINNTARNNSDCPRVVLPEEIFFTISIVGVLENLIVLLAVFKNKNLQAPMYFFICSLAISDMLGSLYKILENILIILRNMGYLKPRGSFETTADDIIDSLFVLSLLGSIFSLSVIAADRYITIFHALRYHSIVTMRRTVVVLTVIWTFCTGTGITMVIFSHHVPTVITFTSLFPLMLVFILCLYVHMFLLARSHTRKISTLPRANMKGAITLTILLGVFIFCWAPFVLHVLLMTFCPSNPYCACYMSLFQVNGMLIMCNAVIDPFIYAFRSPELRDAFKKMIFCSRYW
T1 sequence (Q8TCY5 whole entry partner): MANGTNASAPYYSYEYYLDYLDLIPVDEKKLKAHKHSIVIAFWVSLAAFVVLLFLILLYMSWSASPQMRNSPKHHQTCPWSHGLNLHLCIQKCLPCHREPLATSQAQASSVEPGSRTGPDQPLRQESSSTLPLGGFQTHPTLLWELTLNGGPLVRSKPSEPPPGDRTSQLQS
CYP3A4, sequence (P08684 whole entry): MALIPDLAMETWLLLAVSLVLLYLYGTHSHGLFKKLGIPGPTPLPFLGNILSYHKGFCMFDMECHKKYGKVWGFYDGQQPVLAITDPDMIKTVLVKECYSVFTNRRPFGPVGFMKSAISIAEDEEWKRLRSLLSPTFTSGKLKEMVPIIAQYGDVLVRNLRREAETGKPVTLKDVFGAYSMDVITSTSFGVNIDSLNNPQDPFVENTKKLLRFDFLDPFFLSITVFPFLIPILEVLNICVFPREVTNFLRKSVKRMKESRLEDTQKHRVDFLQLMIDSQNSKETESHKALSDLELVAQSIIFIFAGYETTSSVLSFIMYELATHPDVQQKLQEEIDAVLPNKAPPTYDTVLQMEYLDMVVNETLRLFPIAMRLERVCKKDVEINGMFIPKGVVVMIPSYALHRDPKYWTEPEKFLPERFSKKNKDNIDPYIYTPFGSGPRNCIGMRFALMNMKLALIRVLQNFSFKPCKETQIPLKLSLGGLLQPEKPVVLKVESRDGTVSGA
CYP2D6, sequence (P10635 whole entry): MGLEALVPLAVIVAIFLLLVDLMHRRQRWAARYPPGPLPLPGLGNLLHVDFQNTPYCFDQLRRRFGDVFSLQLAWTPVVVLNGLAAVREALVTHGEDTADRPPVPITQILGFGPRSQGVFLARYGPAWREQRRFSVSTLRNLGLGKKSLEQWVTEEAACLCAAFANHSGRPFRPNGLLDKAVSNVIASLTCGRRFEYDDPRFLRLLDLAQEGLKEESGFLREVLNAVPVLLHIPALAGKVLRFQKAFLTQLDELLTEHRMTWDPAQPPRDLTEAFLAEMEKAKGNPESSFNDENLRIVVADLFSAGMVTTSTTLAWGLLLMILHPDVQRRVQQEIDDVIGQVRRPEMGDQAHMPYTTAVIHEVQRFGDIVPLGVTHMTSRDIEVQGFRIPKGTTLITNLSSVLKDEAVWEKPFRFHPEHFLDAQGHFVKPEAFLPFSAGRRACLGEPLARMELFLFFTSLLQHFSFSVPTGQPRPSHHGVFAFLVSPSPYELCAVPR

For `CCOc1ccccc1-c1ccc(N2CCN(C(=O)C3(C(F)(F)F)CCC3)C[C@H]2CC)c(C(=O)N[C@@H]2CN3CCC2CC3)n1` [Compound 1, 6-(2-ethoxyphenyl)-3-((R)-2-ethyl-4-(1-(trifluoromethyl)cyclobutane-1-carbonyl)piperazin-1-yl)-N—((S)-quinuclidin-3-yl) picolinamide], the “target organ toxicity finding” value ([1]; 3-month dog study) was “adrenal and liver atrophy”, the “adrenal gland and liver findings with hydrocortisone supplementation” value ([1]; dog) was “mitigated with hydrocortisone supplementation” and the “primary metabolic pathways involved in metabolic clearance” value [2] was “oxidative metabolism, resulting in formation of hydroxylated and desmethyl metabolites”. For the same molecule, the “Angiotensin-II stimulation of aldosterone” value (aldosterone; during treatment) was “did not affect”, the ACTH-stimulated aldosterone levels (aldosterone; in vivo) was “reduced” and the “Ang-II stimulated aldosterone after discontinuation” value (aldosterone; [14]) was “suppressed”. The “sodium and potassium levels after discontinuation” value (aldosterone; [14]) was “normal”, the “ACTH binding to the receptor” value (MC2R [3]) was “potently blocked” and the Ki (MC2R [3]) was less than 0.01 µM. The adrenal gland effect (corticosterone [4]) was “dose-dependent adrenal gland atrophy”, the “decrease of corticosterone values on Days 1 and 7 (maximum)” value (corticosterone [4]) was no more than 92% and the “adverse event observed during treatment” value [5] was “Glucocorticoid deficiency was observed”. For the same molecule, the “ACTH-mediated G-protein activation and subsequent cAMP production” value (MC2R [6]) was “potently blocked”, the genotoxic risk [7] was “No findings indicating significant genotoxic risk” and the “adverse effects on core organ systems (cardiovascular, central nervous, respiratory)” value [8] was “No findings”. The “selectivity over other human melanocortin receptor subtypes” value [9] was greater than 2900 fold, the “selectivity for hMC2R over 5-HT1B” value (5-HT1B receptor) was “more than 2200 fold” and the “agonist activity against the 5-HT1B receptor” value (5-HT1B receptor; off-target screen) was “no agonist activity”. For the same molecule, the “antagonist activity against the 5-HT1B receptor” value (5-HT1B receptor; off-target screen) was “weak antagonist”, the “target organ toxicity finding” value ([10]; 28-day rat study) was “foamy macrophages in the lungs” and the “consistency of rat lung findings with drug-induced PLD” value ([10]; rat lung) was “not to be consistent with drug-induced PLD”. For the same molecule, the “effect of food on absorption” value [11] was “minimal effect of food on absorption”, the “corticosterone secretion after 1 μg/kg ACTH (1-24)” value ([12]; oral, 3 and 10 mg/kg, male and female rats) was “dose-dependently suppressed” and the “corticosterone after ACTH administration at 1, 4, 24, and 48 hours after a single dose” value ([12]; single dose, time course) was “dose-dependent suppression of corticosterone at 1 and 4 hours only”. The “role of CYP2C8 in catalyzing oxidative metabolism” value (CYP2C8) was “may also have a minor contribution”, the “role of CYP2D6 in catalyzing oxidative metabolism” value (CYP2D6) was “may also have a minor contribution” and the “role of CYP3A4 in catalyzing oxidative metabolism” value (CYP3A4) was “plays a key role”. For the same molecule, the adrenal gland effect (corticosterone [13]) was “dose-dependent adrenal gland atrophy” and the “decrease of corticosterone values on Days 1 and 7 (maximum)” value (corticosterone [13]) was no more than 92%.
